Experimental data published in patent US20240368173A1, “TRICYCLIC GPR65 MODULATORS” (PATHIOS THERAPEUTICS LIMITED, priority 2021, published 2024).

target: human recombinant GPR65 (Homo sapiens, UniProt Q8IYL9); assay: Human GPR65 cAMP HTRF antagonist assay; type: cell-based; details: not given
Procedure, shortened: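 1321N1 astrocytoma cells stably expressing hrGPR65, with IBMX and EDTA, were preincubated with compound 30 min at room temperature, then acid-activated at assay pH 7.2 (control pH 7.9) for 30 min. cAMP read by HTRF (665/620 nm ratio); IC50 from 4-parameter fit normalised to high/low controls.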

Chain of human recombinant GPR65 (Q8IYL9 whole entry): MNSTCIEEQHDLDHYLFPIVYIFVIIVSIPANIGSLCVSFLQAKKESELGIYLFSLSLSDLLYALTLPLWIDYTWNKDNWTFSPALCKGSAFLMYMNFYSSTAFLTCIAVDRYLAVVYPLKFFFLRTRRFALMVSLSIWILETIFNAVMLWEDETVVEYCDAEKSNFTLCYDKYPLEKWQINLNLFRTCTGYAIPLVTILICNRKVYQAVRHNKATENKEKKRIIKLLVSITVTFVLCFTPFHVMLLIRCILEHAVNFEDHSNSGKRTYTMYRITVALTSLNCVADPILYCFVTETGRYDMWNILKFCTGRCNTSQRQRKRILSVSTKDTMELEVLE

Row | Compound | IC50 [nM]
1 | Cc1ccc(-c2cc(F)c(NC(=O)N3[C@H]4CC[C@@H]3c3n[nH]c(=O)cc3C4)cc2Cl)cn1 [Compound 123, (6S,9R)-N-(5-Chloro-2-fluoro-4-(6-methylpyridin-3-yl)phenyl)-3-oxo-3,5,6,7,8,9-hexahydro-2H-6,9-epiminocyclohepta[c]pyridazine-10-carboxamide] | < 500
2 | N#Cc1ccc(-c2cc(F)c(NC(=O)N3[C@H]4CC[C@@H]3c3n[nH]c(=O)cc3C4)cc2Cl)cn1 [Compound 124, (6S,9R)-N-(5-Chloro-4-(6-cyanopyridin-3-yl)-2-fluorophenyl)-3-oxo-3,5,6,7,8,9-hexahydro-2H-6,9-epiminocyclohepta[c]pyridazine-10-carboxamide] | < 500
3 | Cc1cnccc1-c1cc(F)c(NC(=O)N2[C@H]3CC[C@@H]2c2n[nH]c(=O)cc2C3)cc1Cl [Compound 125, (6S,9R)-N-(5-Chloro-2-fluoro-4-(3-methylpyridin-4-yl)phenyl)-3-oxo-3,5,6,7,8,9-hexahydro-2H-6,9-epiminocyclohepta[c]pyridazine-10-carboxamide] | < 500
4 | O=C(Nc1cc(Cl)c(-c2cncc(F)c2)cc1F)N1[C@H]2CC[C@@H]1c1n[nH]c(=O)cc1C2 [Compound 126, (6S,9R)-N-(5-Chloro-2-fluoro-4-(5-fluoropyridin-3-yl)phenyl)-3-oxo-3,5,6,7,8,9-hexahydro-2H-6,9-epiminocyclohepta[c]pyridazine-10-carboxamide] | < 500
5 | N#Cc1cncc(-c2cc(F)c(NC(=O)N3[C@H]4CC[C@@H]3c3n[nH]c(=O)cc3C4)cc2Cl)c1 [Compound 127, (6S,9R)-N-(5-Chloro-4-(5-cyanopyridin-3-yl)-2-fluorophenyl)-3-oxo-3,5,6,7,8,9-hexahydro-2H-6,9-epiminocyclohepta[c]pyridazine-10-carboxamide] | < 500
6 | CS(=O)(=O)c1ccc(-c2cc(F)c(NC(=O)N3[C@H]4CC[C@@H]3c3n[nH]c(=O)cc3C4)cc2Cl)cc1 [Compound 131, (6S,9R)-N-(2-Chloro-5-fluoro-4′-(methylsulfonyl)-[1,1′-biphenyl]-4-yl)-3-oxo-3,5,6,7,8,9-hexahydro-2H-6,9-epiminocyclohepta[c]pyridazine-10-carboxamide] | < 500

same assay, conditions: 1321N1-hrGPR65 cells, cAMP HTRF, assay pH 7.2; read-out: hGPR65 IC50 (Activity of selected compounds according to the invention)

Row | Compound | IC50 [nM]
7 | CS(=O)(=O)c1cncc(-c2cc(F)c(NC(=O)N3[C@H]4CC[C@@H]3c3n[nH]c(=O)cc3C4)cc2Cl)c1 [Compound 122, (6S,9R)-N-(5-Chloro-2-fluoro-4-(5-(methylsulfonyl)pyridin-3-yl)phenyl)-3-oxo-3,5,6,7,8,9-hexahydro-2H-6,9-epiminocyclohepta[c]pyridazine-10-carboxamide] | 500 to 5000
8 | O=C(Nc1cc(Cl)c(-c2cncc(CO)c2)cc1F)N1[C@H]2CC[C@@H]1c1n[nH]c(=O)cc1C2 [Compound 128, (6S,9R)—N-(5-Chloro-2-fluoro-4-(5-(hydroxymethyl)pyridin-3-yl)phenyl)-3-oxo-3,5,6,7,8,9-hexahydro-2H-6,9-epiminocyclohepta[c]pyridazine-10-carboxamide] | 500 to 5000
9 | NC(=O)c1ccc(-c2cc(F)c(NC(=O)N3[C@H]4CC[C@@H]3c3n[nH]c(=O)cc3C4)cc2Cl)cc1 [Compound 129, (6S,9R)-N-(4′-Carbamoyl-2-chloro-5-fluoro-[1,1′-biphenyl]-4-yl)-3-oxo-3,5,6,7,8,9-hexahydro-2H-6,9-epiminocyclohepta[c]pyridazine-10-carboxamide] | 500 to 5000
10 | CNC(=O)c1ccc(-c2cc(F)c(NC(=O)N3[C@H]4CC[C@@H]3c3n[nH]c(=O)cc3C4)cc2Cl)cc1 [Compound 130, (6S,9R)-N-(2-Chloro-5-fluoro-4′-(methylcarbamoyl)-[1,1′-biphenyl]-4-yl)-3-oxo-3,5,6,7,8,9-hexahydro-2H-6,9-epiminocyclohepta[c]pyridazine-10-carboxamide] | 500 to 5000
